IC50 and inhibition data for 29 compounds are collected here from patent publication US20030225152A1, “3-(Arylamino)methylene-1, 3-dihydro-2h-indol-2-ones as kinase inhibitors” (priority 2001, published 2003).

Structures are written as SMILES.

The subject of assay [1] is VEGF induced increases in intracellular calcium levels in HUVEC (human umbilical vein endothelial cells). Briefly: VEGF Stimulated Ca++ Signal in vitro (FLIPR). In kind it is cell-based. The following applies: VEGF 5 ng/mL; for IC50: 0.01 to 10.0 μM. The essentials: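 IC50 values derive from % inhibition of the VEGF (5 ng/mL) calcium response, taken as max-min fluorescence at 516 nm in Fluo-4-loaded HUVEC. Compounds (0.1% DMSO final) were added 30 min before stimulation, at 10 μM or across 0.01–10.0 μM.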

The target of assay [2] is T1, cytoplasmic domain of the human VEGF receptor (VEGFR-2) (Homo sapiens, UniProt P35968).
T1 construct: The cytoplasmic domain of the human VEGF receptor (VEGFR-2) was expressed as a Histidine-tagged fusion protein; Histidine tag
T1 sequence (P35968 786-1356): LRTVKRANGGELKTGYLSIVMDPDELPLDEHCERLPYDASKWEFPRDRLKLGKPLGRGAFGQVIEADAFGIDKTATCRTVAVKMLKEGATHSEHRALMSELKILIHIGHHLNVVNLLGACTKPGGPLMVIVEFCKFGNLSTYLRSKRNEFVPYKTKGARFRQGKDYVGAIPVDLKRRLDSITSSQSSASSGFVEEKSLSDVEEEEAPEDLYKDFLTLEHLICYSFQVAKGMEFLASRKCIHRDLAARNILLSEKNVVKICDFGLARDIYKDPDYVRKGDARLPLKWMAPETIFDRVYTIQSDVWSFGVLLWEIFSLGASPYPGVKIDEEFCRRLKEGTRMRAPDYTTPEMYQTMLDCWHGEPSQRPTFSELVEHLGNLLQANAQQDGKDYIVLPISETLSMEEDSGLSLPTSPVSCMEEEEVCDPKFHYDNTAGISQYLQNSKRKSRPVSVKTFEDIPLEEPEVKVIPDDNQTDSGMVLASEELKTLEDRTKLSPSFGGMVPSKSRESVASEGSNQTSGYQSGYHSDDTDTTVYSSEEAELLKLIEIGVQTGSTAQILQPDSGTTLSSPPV
Kind of assay: KDR Assay. In kind it is biochemical. Conditions: His-VEGFR-2; 3.6 μM ATP. The procedure, abridged:
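IC50 taken from blank-corrected OD492 curves of an anti-phosphotyrosine peroxidase ELISA. Reaction: 10 min, 25 °C, 3.6 μM ATP, 50 mM Hepes pH 7.4 with 20 mM MgCl2, 0.1 mM MnCl2 and 5% DMSO, on poly-Glu-Tyr-coated wells, started with insect-cell-expressed His-VEGFR-2 cytoplasmic domain.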

Usually IC50 stands for the midpoint of a concentration-inhibition curve. In general, inhibition refers to the share of the control response that was lost under treatment. As for `O=C1Nc2ccccc2C1=CNc1ccc(OCCCCN2CCSCC2)cc1` [Example 226, 3-{[4-(4-Thiomorpholin-4-yl-butoxy)-phenylamino]-methylene}-1,3-dihydro-indol-2-one], the IC50 in assay [1] is 700 nM; in assay [1] (Homo sapiens) it was at most 1000 nM; in assay [2], 280 nM. Further, in assay [1] (Homo sapiens), the inhibition at 10 µM is 98%.
On to `O=C1Nc2ccccc2C1=CNc1ccc(OC(F)F)cc1` [Example 50, 3-{[4-(1,1-Difluoro-methoxy)-phenylamino]-methylene}-1,3-dihydro-indol-2-one], for which, in assay [1] (Homo sapiens), the inhibition at 10 µM stood at 93.5% and the half-inhibitory concentration (IC50) stood at 1650 nM. Besides, in assay [2], the half-inhibitory concentration (IC50) is 550 nM.
On to `O=C1Nc2ccc(Cl)cc2C1=CNc1ccc(OCCN2CCCC2)cc1` [Example 275, 5-Chloro-3-{[4-(2-pyrrolidin-1-yl-ethoxy)-phenylamino]-methylene}-1,3-dihydro-indol-2-one], for which the half-inhibitory concentration (IC50) in assay [1] was 620 nM; in assay [1] (Homo sapiens), at most 1000 nM; in assay [2] it was 130 nM.
Regarding `O=C1Nc2ccccc2C1=CNc1ccc(N2CCOCC2)c(C(=O)O)c1` [Example 195, 2-Morpholin-4-yl-5-[(2-oxo-1,2-dihydro-indol-3-ylidenemethyl)-amino]-benzoic acid], in assay [1] (Homo sapiens), the inhibition at 10 µM is 91.1% and the IC50 is 4670 nM. For the same compound, in assay [2], 960 nM corresponded to half-maximal inhibition (IC50).
In the same order, the values of `CC(C)c1ccc(NC=C2C(=O)Nc3ccccc32)cc1` [Example 52, 3-[(4-Isopropyl-phenylamino)-methylene]-1,3-dihydro-indol-2-one] are 69%, 2280 nM and 580 nM.
`O=C(O)Cc1ccc(NC=C2C(=O)Nc3ccc(F)cc32)cc1` [Example 174, {4-[(5-Fluoro-2-oxo-1,2-dihydro-indol-3-ylidenemethyl)-amino]-phenyl}-acetic acid]: the inhibition at 10 µM in assay [1] (Homo sapiens) came to 76.4%. Moreover, the IC50 came out at 6020 nM in assay [1] (Homo sapiens) and 840 nM in assay [2].
As to `CCN(CC)CCCOc1ccc(NC=C2C(=O)Nc3ccc(Cl)cc32)cc1` [Example 232, 5-Chloro-3-{[4-(3-diethylamino-propoxy)-phenylamino]-methylene}-1,3-dihydro-indol-2-one], the half-maximal inhibitory concentration (IC50) in assay [1] is 860 nM; in assay [1] (Homo sapiens), at most 1000 nM; in assay [2], 160 nM. For the same compound, the inhibition at 10 µM in assay [1] (Homo sapiens) was 97.1%.
In the case of `CCc1ccc(NC=C2C(=O)Nc3cccc(C)c32)cc1` [Example 151, 3-[(4-Ethyl-phenylamino)-methylene]-4-methyl-1,3-dihydro-indol-2-one], the inhibition at 10 µM in assay [1] (Homo sapiens) was 50.8%. This compound also returned a half-inhibitory concentration (IC50) in assay [2] of 460 nM.
In the same order, the values of `Cc1ccc(NC=C2C(=O)Nc3ccccc32)cc1O` [Example 48, 3-[(3-Hydroxy-4-methyl-phenylamino)-methylene]-1,3-dihydro-indol-2-one] are 95.4% and 740 nM.
`Cc1ccc(NC=C2C(=O)Nc3ccccc32)cc1C` [Example 20, 3-[(3,4-Dimethyl-phenylamino)-methylene]-1,3-dihydro-indol-2-one]: in assay [1] (Homo sapiens), the inhibition at 10 µM was determined as 63%. Moreover, the IC50 in assay [1] (Homo sapiens) was 1820 nM; in assay [2] it was 1210 nM.
In the same order, the values of `O=C1Nc2ccccc2C1=CNc1ccc2ncsc2c1` [Example 43, 3-[(6-Benzthioazolylamino)-methylene]-1,3-dihydro-indol-2-one] are 84%, 1740 nM and 230 nM.
Turning to `Cc1cccc2c1C(=CNc1ccc3ncsc3c1)C(=O)N2` [Example 92, 3-(Benzothiazol-6-ylaminomethylene)-4-methyl-1,3-dihydro-indol-2-one], in assay [1] (Homo sapiens), the inhibition at 10 µM was 69% and the half-inhibitory concentration (IC50) was determined as 1770 nM. The compound also returned an IC50 in assay [2] of 150 nM.
On to `CSc1ccc(NC=C2C(=O)Nc3cccc(C)c32)cc1` [Example 137, 4-Methyl-3-[(4-methylsulfanyl-phenylamino)-methylene]-1,3-dihydro-indol-2-one], for which, in assay [1] (Homo sapiens), the inhibition at 10 µM was determined as 65.4%. Also, the values for the 50% inhibitory concentration (IC50) in assay [1] (Homo sapiens) and in assay [2] were 1670 nM and 270 nM, respectively.
Regarding `Cc1cccc2c1C(=CNc1cccc(S(=O)(=O)N(CCO)CCO)c1)C(=O)N2` [Example 191, N,N-Bis-(2-hydroxy-ethyl)-3-[(4-methyl-2-oxo-1,2-dihydro-indol-3-ylidenemethyl)-amino]-benzenesulfonamide], in assay [1] (Homo sapiens), the inhibition at 10 µM was found to be 98.7% and the IC50 was determined as 2410 nM. The compound also gave an IC50 in assay [2] of 700 nM.
As for `CSc1ccc(NC=C2C(=O)Nc3ccc(F)cc32)cc1` [Example 171, 5-Fluoro-3-[(4-methylsulfanyl-phenylamino)-methylene]-1,3-dihydro-indol-2-one], in assay [1] (Homo sapiens), the inhibition at 10 µM came to 38.1%. This compound registered an IC50 in assay [2] of 430 nM.
For the compound `O=C1Nc2ccc(F)cc2C1=CNc1ccc(CN2CCCCC2)cc1` [Example 258, 5-Fluoro-3-[(4-piperidin-1-ylmethyl-phenylamino)-methylene]-1,3-dihydro-indol-2-one], the IC50 was 720 nM in assay [1], at most 1000 nM in assay [1] (Homo sapiens) and 560 nM in assay [2].
As to `O=C1Nc2ccc(F)cc2C1=CNc1cccc(O)c1` [Example 177, 5-Fluoro-3-[(3-hydroxy-phenylamino)-methylene]-1,3-dihydro-indol-2-one], the IC50 in assay [1] is 740 nM; in assay [1] (Homo sapiens), at most 1000 nM; in assay [2] it was 750 nM. Besides, the inhibition at 10 µM in assay [1] (Homo sapiens) was determined as 98.2%.
`CSc1ccc(NC=C2C(=O)Nc3ccccc32)cc1` [Example 136, 3-[(4-Methylsulfanyl-phenylamino)-methylene]-1,3-dihydro-indol-2-one]: in assay [1] (Homo sapiens), the inhibition at 10 µM turned out to be 63.7% and the IC50 stood at 2070 nM. For the same compound, in assay [2], the midpoint of inhibition, the IC50, lay at 490 nM.
As to `N#Cc1ccc2c(c1)C(=CNc1ccc(N3CCOCC3)cc1)C(=O)N2` [Example 237, 3-[(4-Morpholin-4-yl-phenylamino)-methylene]-2-oxo-2 ,3-dihydro-1 h-indole-5-carbonitrile], the inhibition at 10 µM in assay [1] (Homo sapiens) is 36.4%. The compound also came in with an IC50 in assay [2] of 710 nM.
On to `CN1CCCC(COc2ccc(NC=C3C(=O)Nc4cccc(F)c43)cc2)C1` (centres unmarked) [Example 281, 4-Fluoro-3-{[4-(1-methyl-piperidin-3-ylmethoxy)-phenylamino]-methylene}-1,3-dihydro-indol-2-one], for which the half-inhibitory concentration (IC50) in assay [1] was 730 nM; in assay [1] (Homo sapiens) it was at most 1000 nM; in assay [2] it was 320 nM.
For `COc1ccc(NC=C2C(=O)Nc3ccc(Cl)cc32)cc1` [Example 73, 3-[(4-Methoxyphenylamino)-methylene]-5-chloro-1,3-dihydro-indol-2-one], in assay [1] (Homo sapiens), the inhibition at 10 µM came out at 56.5% and the 50% inhibitory concentration (IC50) is 3650 nM. This compound also showed a half-inhibitory concentration (IC50) in assay [2] of 260 nM.
Consider `Cc1cccc2c1C(=CNc1ccc(C(C)C)cc1)C(=O)N2` [Example 123, 3-[(4-Isopropyl-phenylamino)-methylene]-4-methyl-1,3-dihydro-indol-2-one], for which, in assay [1] (Homo sapiens), the inhibition at 10 µM was determined as 49.9% and the IC50 turned out to be 4430 nM. This compound also gave an IC50 in assay [2] of 590 nM.
In the same order, the values of `O=C(O)CCc1cccc(NC=C2C(=O)Nc3ccccc32)c1` [Example 141, 3-{3-[(2-Oxo-1,2-dihydro-indol-3-ylidenemethyl)-amino]-phenyl}-propionic acid] are 92.6%, 2960 nM and 510 nM.
For `COc1ccc(NC=C2C(=O)Nc3ccccc32)cc1` [Example 7, 3-[(4-Methoxy-phenylamino)-methylene]-1,3-dihydro-indol-2-one], the 50% inhibitory concentration (IC50) in assay [1] was 950 nM; in assay [1] (Homo sapiens) it was at most 1000 nM; in assay [2], 690 nM. The inhibition at 10 µM in assay [1] (Homo sapiens) amounted to 94.5%.
As to `O=C1Nc2ccc(Cl)cc2C1=CNc1ccc(CCN2CCOCC2)cc1` [Example 307, 5-Chloro-3-{[4-(2-morpholin-4-yl-ethyl)-phenylamino]-methylene}-1,3-dihydro-indol-2-one], the 50% inhibitory concentration (IC50) is 650 nM in assay [1], at most 1000 nM in assay [1] (Homo sapiens) and 270 nM in assay [2].
For `CCN(CC)c1ccc(NC=C2C(=O)Nc3cccc(C)c32)cc1` [Example 189, 3-[(4-Diethylamino-phenylamino)-methylene]-4-methyl-1,3-dihydro-indol-2-one], in assay [1] (Homo sapiens), the inhibition at 10 µM came to 98.2%. In addition, in assay [2], the half-inhibitory concentration (IC50) is 70 nM.
Take `O=C1Nc2ccc(Cl)cc2C1=CNc1ccc(OCCCN2CCCCC2)cc1` [Example 241, 5-Chloro-3-{[4-(3-piperidin-1-yl-propoxy)-phenylamino]-methylene}-1,3-dihydro-indol-2-one]: in assay [1] (Homo sapiens), the inhibition at 10 µM turned out to be 95.8% and the IC50 stood at 1010 nM. In assay [2], this compound yielded an IC50 of 130 nM.
The like results for `O=C(O)Cc1ccc(NC=C2C(=O)Nc3ccccc32)cc1` [Example 224, 3-[(4-Carboxymethylphenylamino)-methylene]-1,3-dihydro-indol-2-one] were, in that order, 56.2%, 6310 nM and 2270 nM.
In the same order, the values of `COc1ccc(NC=C2C(=O)Nc3cccc(C)c32)cc1` [Example 59, 3-[(4-Methoxy-phenylamino)-methylene]-4-methyl-1,3-dihydro-indol-2-one] are 86%, 1650 nM and 180 nM.
